Experimental data taken from patent US10940188B2, “Compounds and methods for treatment and prevention of Flavivirus infection” (priority 2016, dated 2021).
Where “and” joins values, the source holds several entries; their conditions need not be identical. Equal entries are not always repeated. Where two headings read alike, the source gives them in different places.

Legend:
[1] = test system: ZIKV-induced cell death in SNB-19 cells; experiment: ATP cell viability assay for ZIKV-induced cell death, SNB-19 cells; assay type: cell-based, human
Outline: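 The extent of cell death caused by ZIKV infection was determined from ATP levels. Cells grew in assay plates for 16 hours at 37° C. with 5% CO2, were then given ZIKV solution and kept under the same conditions for 72 hours. ATPlite reagent was applied for 15 minutes and luminescence was read on a ViewLux plate reader. Cell-free wells defined 100% killing and uninfected cell wells defined full viability.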

[2] = test system: ZIKV-induced caspase 3/7 activity in SNB-19 cells; experiment: Caspase 3/7 activity assay, ZIKV-infected SNB-19 cells; assay type: cell-based
Outline: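 Human NPCs, SNB-19 cells or astrocytes seeded 16 h, compound added 30 min before ZIKV, then 6 h infection at 37 °C. Caspase-Glo 3/7 luminescence after 30 min at room temperature, normalized to uninfected cells (0%) and ZIKV-infected cells (100%).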

[3] = Homo sapiens, ZIKV-infected SNB-19 cells, read-out: Caspase 3 (IC50, uM) SNB-19
[4] = Homo sapiens, ZIKV-infected SNB-19 cells, read-out: Caspase 3 (efficacy, %) SNB-19
[5] = ZIKV-infected SNB-19 cells, read-out: Caspase 3 (IC50, uM) SNB-19
[6] = Homo sapiens, SNB-19, following ZIKV infection, read-out: IC50 (μM) for improving cell viability, SNB-19
[7] = Homo sapiens, ZIKV-infected SNB-19 cells, read-out: Cell viability (IC50, uM) SNB-19
[8] = ZIKV-infected SNB-19 cells, read-out: Cell viability (IC50, uM) SNB-19

Compound	Cell viability (efficacy, %) SNB-19 ([1]; ZIKV-infected SNB-19 cells) [%]	IC50 [2, 3] [µM]	Emax [2, 4] [%]	further results
Cc1cccc(C#Cc2ccccc2)n1 [MPEP, 2-Methyl-6-(phenylethynyl)pyridine]	0.0	5.18	98.6	–
O=C1c2ccccc2C(=O)c2c1ccc(O)c2O [Alizarin]	0.0	21.8	40.9	–
COc1cccc(-c2ccc(NC(=O)C3=C(C(=O)O)CCC3)c(F)c2)c1 [Vidofludimus]	0.0	3.66	101	–
O=S(=O)(O)c1ccc2[nH]c(-c3ccccc3)nc2c1 [Ensulizole]	0.0	–	–	IC50 ([2]; Homo sapiens, SNB-19, read-out: Caspase 3 (IC50, uM) SNB-19): 1.84 µM; Emax ([2]; Homo sapiens, SNB-19, read-out: Caspase 3 (efficacy, %) SNB-19): 73.3%
Cc1cccc(/C=C/c2ccccc2)n1 [SIB 1893]	0.0	–	–	Caspase 3 (efficacy, %) SNB-19 ([2]; ZIKV-infected SNB-19 cells): 105%; IC50 [2, 5]: 15.5 µM
C/C1=C2/[N-][C@H]([C@H](CC(N)=O)[C@@]2(C)CCC(=O)NC[C@@H](C)OP(=O)([O-])O[C@H]2[C@@H](O)[C@@H](n3cnc4cc(C)c(C)cc43)O[C@@H]2CO)[C@]2(C)N=C(/C(C)=C3N=C(/C=C4N=C1[C@@H](CCC(N)=O)C\4(C)C)[C@@H](CCC(N)=O)[C@]\3(C)CC(N)=O)[C@@H](CCC(N)=O)[C@]2(C)CC(N)=O.[Co+3].[OH-] [Hydroxocobalamin]	0.0	–	–	Caspase 3 (efficacy, %) SNB-19 ([2]; ZIKV-infected SNB-19 cells): 85.7%; IC50 [2, 5]: 1.46 µM
O=C(Nc1ccc([N+](=O)[O-])cc1Cl)c1cc(Cl)ccc1O [Niclosamide]	97.3	2.06	93.9	IC50 [1, 6]: 1.95 µM; IC50 [1, 7]: 1.95 µM
Flurbiprofen axetil	0.0	–	–	Caspase 3 (efficacy, %) SNB-19 ([2]; ZIKV-infected SNB-19 cells): 45.7%; IC50 [2, 5]: 19.5 µM
C[C@H](NC(=O)C(=O)Nc1ccccc1C(C)(C)C)C(=O)N[C@@H](CC(=O)O)C(=O)COc1c(F)c(F)cc(F)c1F [Emricasan]	194	0.62	97.6	IC50 [1, 6]: 0.87 µM; IC50 ([1]; Homo sapiens, SNB-19 cells, three ZIKV strains MR766, FSS13025, PRVABC59, read-out: IC50 in the cell viability assay): 0.13 to 0.9 µM; IC50 [1, 7]: 0.87 µM; IC50 ([2]; Homo sapiens, SNB-19 cells, three ZIKV strains MR766, FSS13025, PRVABC59, read-out: IC50 in the caspase activity assay): 0.13 to 0.9 µM
Nc1nc2ccc([N+](=O)[O-])cc2s1 [2-Amino-6-nitrobenzothiazole]	0.0	53.1	46.1	–
O=C(O)c1ccccc1Nc1cccc(C(F)(F)F)c1 [Flufenamic acid]	0.0	10.9	61.5	–
O=C(O)CCC(=O)c1ccc(-c2ccccc2)cc1 [Fenbufen]	0.0	24.5	76.3	–
Cc1cc(O)c2c(c1)C(=O)c1cc(O)cc(O)c1C2=O [Emodin]	0.0	4.35	83.3	–
O=C1NC(=O)/C(=C/c2ccc(-c3ccc(F)cc3O)o2)S1 [AS-252424]	0.0	–	–	Caspase 3 (efficacy, %) SNB-19 ([2]; ZIKV-infected SNB-19 cells): 38.0%; IC50 [2, 5]: 2.18 µM
O=C(O)c1ccccc1NCCc1ccccc1 [Enfenamic acid]	0.0	–	49.5	–
O=C1NC(=O)C(=Cc2ccc(-c3ccc(F)cc3)o2)S1 [CAY10505]	0.0	–	–	Caspase 3 (efficacy, %) SNB-19 ([2]; ZIKV-infected SNB-19 cells): 91.2%; IC50 [2, 5]: 17.3 µM
Vitamin B12	–	–	–	IC50 [1, 8]: 0.12 µM; IC50 [2, 5]: 11.6 µM and 13.4 µM
CN(C)CCCSc1ccccc1NC(=O)/C=C/c1ccccc1 [Cinanserin]	56.9	12.3	92	IC50 [1, 7]: 19.5 µM

Compound	Cell viability (efficacy, %) SNB-19 ([1]; ZIKV-infected SNB-19 cells) [%]	IC50 [2, 3] [µM]	Emax [2, 4] [%]	further results
CC(C(=O)O)c1ccc(C(=O)c2ccccc2)s1 (centres unmarked) [Tiaprofenic acid]	0.0	10.3	96.2	–
CCOCCOC(=O)C=Cc1ccc(OC)cc1 [2-Ethoxylethyl-p-methoxycinnamate]	0.0	27.5	53	–
CC(=O)Oc1cccc2c1C(=O)c1c(OC(C)=O)cc(C(=O)O)cc1C2=O [Diacerein]	0.0	17.3	63.2	–
O=C(O)c1cc([N+](=O)[O-])ccc1NCCCc1ccccc1 [5-Nitro-2-(3-phenylpropylamino)benzoic acid]	0.0	13	82.9	–
c1ccc(CCNc2nc(-c3ccccc3)cs2)cc1 [Fanetizole]	0.0	17.3	78.1	–
COc1ccc(-c2cc(=S)ss2)cc1 [Anethole trithione]	0.0	15.5	85.5	–
O=C(OCc1ccccc1)c1ccc(O)cc1 [Benzylparaben]	0.0	19.5	91.8	–
CC(C(=O)O)c1ccc(C(=O)c2cccs2)cc1 (centres unmarked) [Suprofen]	0.0	17.3	65.6	–
CN1CC(=O)NC1=NC(=O)Nc1cccc(Cl)c1 [Fenobam]	60.5	–	–	IC50 [1, 8]: 1.73 µM; Caspase 3 (efficacy, %) SNB-19 ([2]; ZIKV-infected SNB-19 cells): 110%; IC50 [2, 5]: 7.31 µM
Cc1ccc(O)c(-n2nc3ccccc3n2)c1 [2-(2H-Benzotriazol-2-yl)-4-methylphenol]	0.0	8.69	80.1	–
CCC(C(=O)O)c1ccc(N2Cc3ccccc3C2=O)cc1 (centres unmarked) [Indobufen]	0.0	7.74	85.8	–
N#CC1(c2ccc(NC(=O)c3cccnc3NCc3ccncc3)cc2)CCCC1 [Apatinib]	0.0	24.5	61.2	–
O=C(Oc1ccccc1)c1cccc(C(=O)Oc2ccccc2)c1 [Diphenyl isophthalate]	0.0	4.73	92.8	–
CC(=O)Nc1ccc([C@H](C)C(=O)Nc2ncc(C(C)C)s2)cc1 [PHA-690509]	165	–	–	IC50 [1, 8]: 10.9 µM; IC50 ([1]; following ZIKV infection, read-out: IC50 (μM) for improving cell viability, SNB-19): 10.1 µM; Caspase 3 (efficacy, %) SNB-19 ([2]; ZIKV-infected SNB-19 cells): 74.6%; IC50 [2, 5]: 9.2 µM
O=C(Nc1ccc(C(=O)O)c(O)c1)c1ccccc1 [Benzoylpas]	0.0	6.9	92.8	–
c1ccc2[nH]c(-c3cscn3)nc2c1 [Thiabendazole]	0.0	14.6	89.4	–
O=C(c1ccccc1)c1ccc2n1CCC2C(=O)O (centres unmarked) [Ketorolac tromethamine]	0.0	17.3	84.5	–
CN1CCN(c2cc3c(nn2)Oc2ccccc2N3C)CC1 [Pipofezine]	0.0	15.1	31.5	–
